# Structures can show the parent of a compound that is named as a salt. Where two headings read alike, the source gives them in different places.
# Legend:
# [1] = assay type: in vitro ADME
# Excerpt: These values are sufficiently high to make it possible to aim at the daily administration, from a transdermal patch, of a quantity of efaroxan base or hydrochloride in the mg range.
# FIG. 4 represents the quantities of idazoxan base and hydrochloride released ex vivo using animal skins, in the case of aqueous alcoholic solutions according to the invention.
# [2] = ex vivo permeation on animal skins after pretreatment with a promoter (reference batch CM586); assay type: in vitro ADME; conditions: ratio of quantity accumulated at 24 h, trial (skin pretreated with promoter) to reference batch CM586; as dexefaroxan base
# Excerpt: FIG. 3 represents the quantities expressed as dexefaroxan base of the accumulated quantities (μg/cm^2); it involves comparing the reference batch CM586 with or without individual pretreatment with promoters.
Molecule,quantities accumulated at 24 hours [1] [mg/cm^2],"quantities accumulated at 24 hours ([1]; 24 h, 10 % m/v) [mg/cm^2]",permeation index (PI) [2],other results
CC[C@]1(C2=NCCN2)Cc2ccccc2O1 [dexefaroxan base],~8.5,–,–,–
CC[C@]1(C2=NCCN2)Cc2ccccc2O1 [dexefaroxan hydrochloride],–,~1.0,–,–
"c1ccc2c(c1)OCC(C1=NCCN1)O2 (stereo not shown) [idazoxan base, 2-(1,4-benzodiosan-2-yl)-2-imidazoline]",~5,–,–,"quantities released at 24 h, base form versus hydrochloride [1]: significantly higher"
"c1ccc2c(c1)OCC(C1=NCCN1)O2 (stereo not shown) [idazoxan hydrochloride, 2-(1,4-benzodiosan-2-yl)-2-imidazoline]",–,~0.25,–,–
Mannitan oleate,–,–,2.4,–
Sorbitan monooleate,–,–,2.6,–

# — patent US20040022834A1, “Pharmaceutical oxan preparation” (priority 2000, published 2004)
